# Measurements published in paper PMC7655571, “Acetylcholinesterase inhibition in electric eel and human donor blood: an in vitro approach to investigate interspecies differences and human variability in toxicodynamics” (Archives of Toxicology, 2020).
# Several values for one entry are separate records, joined by “and”; a condition that tells them apart may be missing. Equal entries are not always repeated. Where two headings read alike, the source gives them in different places.
# Assays:
# [1] = biological target: T1, Electrophorus electricus AChE (Electrophorus electricus, UniProt O42275); assay: AChE inhibition, electric eel enzyme (Ellman method); type: biochemical; details: for AChE inhibition (in words), electric eel: concentration–response curves
# T1 construct: purchased Sigma-Aldrich C2888
# T1 sequence (O42275 24-633): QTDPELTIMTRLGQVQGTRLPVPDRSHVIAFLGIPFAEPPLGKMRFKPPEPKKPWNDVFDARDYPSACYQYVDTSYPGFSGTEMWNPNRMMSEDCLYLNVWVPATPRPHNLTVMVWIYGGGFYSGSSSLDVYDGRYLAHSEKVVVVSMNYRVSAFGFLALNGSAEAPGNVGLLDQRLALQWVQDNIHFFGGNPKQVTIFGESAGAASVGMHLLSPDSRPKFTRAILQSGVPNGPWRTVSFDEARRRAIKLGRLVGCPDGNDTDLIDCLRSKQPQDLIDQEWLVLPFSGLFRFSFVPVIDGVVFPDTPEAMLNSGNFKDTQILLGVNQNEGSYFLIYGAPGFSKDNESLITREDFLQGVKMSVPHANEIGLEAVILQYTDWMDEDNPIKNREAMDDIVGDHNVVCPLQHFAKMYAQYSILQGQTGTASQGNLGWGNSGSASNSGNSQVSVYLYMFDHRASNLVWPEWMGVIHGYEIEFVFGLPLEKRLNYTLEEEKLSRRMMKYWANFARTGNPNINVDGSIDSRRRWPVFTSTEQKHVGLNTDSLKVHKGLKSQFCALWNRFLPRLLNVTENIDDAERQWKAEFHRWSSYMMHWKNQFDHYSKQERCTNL
# Method: (§1) A 1.3 mM DTNB buffer and a 6 mM acetylthiocholine buffer were prepared in the 50 mM sodium phosphate buffer, a 3 mM ethopropazine buffer was prepared in sterile water and all were stored in aliquots at − 20 °C. A 600 µM ethopropazine buffer was prepared just before use in sodium phosphate buffer.
# (§2) Stock solutions were diluted in methanol to create a dosing series and also stored at − 20 °C. These series were 100× diluted in sodium phosphate buffer to get 1% methanol solutions, resulting in a final concentration of 0.1% methanol in the wells.
# AChE from Electrophorus electricus (electric eel) and freshly drawn (maximum one-day-old), venous EDTA whole blood samples from healthy human donors were used. […] Following incubation for 30 min at room temperature, electric eel AChE was used directly in the enzyme activity assay (see “Enzyme activity assay”). For human blood AChE, 50 µL of the blood was added to a new 48-wells plate and 950 µL Triton buffer was added to these wells (20× dilution).
# Briefly, 20 µL of electric eel AChE or 20 µL of Triton-diluted blood (either exposed or unexposed) and 20 µL ethopropazine were added to 460 µL of DTNB buffer in a 48-wells plate. […] Blank wells contained only DTNB buffer and unexposed enzyme/blood to correct for any background absorbance. To these wells, 100 µL sodium phosphate buffer was added instead of acetylthiocholine after incubation. The final concentration of electric eel AChE was 4 mU/well.
# All in vitro data were analysed in GraphPad Prism (version 8.4) and are expressed as mean ± standard deviation (SD). For data analysis, vehicle control (0.1% methanol) was set at 100% for both human and electric eel AChE. For human blood, the technical replicates were averaged to perform statistical tests. […] The electric eel AChE data consisted of 3 technical replicates per experiment and 3–4 independent biological replicates.
# human blood AChE = biological target: T2, human blood AChE (Homo sapiens, UniProt P22303); assay: AChE inhibition in human donor whole blood (Ellman method); type: biochemical; details: for AChE inhibition (in words), human blood: concentration–response curves; for Coefficient of variation (CV) C1 Human: concentration level C1 (Table S2); for Coefficient of variation (CV) C2 Human: concentration level C2 (Table S2); for Coefficient of variation (CV) C3 Human: concentration level C3 (Table S2); for Coefficient of variation (CV) C4 Human: concentration level C4 (Table S2); for Human uncertainty factor (UF) UF97.5: interindividual differences, concentration closest to the IC20, 95% CI in brackets
# T2 construct: 90 µL undiluted blood in a 48-wells plate; from tissue; host or cells: venous EDTA whole blood from healthy human donors, lysed and diluted in Triton X-100 buffer
# T2 sequence (P22303 32-617 isoform P22303-2 limits assumed): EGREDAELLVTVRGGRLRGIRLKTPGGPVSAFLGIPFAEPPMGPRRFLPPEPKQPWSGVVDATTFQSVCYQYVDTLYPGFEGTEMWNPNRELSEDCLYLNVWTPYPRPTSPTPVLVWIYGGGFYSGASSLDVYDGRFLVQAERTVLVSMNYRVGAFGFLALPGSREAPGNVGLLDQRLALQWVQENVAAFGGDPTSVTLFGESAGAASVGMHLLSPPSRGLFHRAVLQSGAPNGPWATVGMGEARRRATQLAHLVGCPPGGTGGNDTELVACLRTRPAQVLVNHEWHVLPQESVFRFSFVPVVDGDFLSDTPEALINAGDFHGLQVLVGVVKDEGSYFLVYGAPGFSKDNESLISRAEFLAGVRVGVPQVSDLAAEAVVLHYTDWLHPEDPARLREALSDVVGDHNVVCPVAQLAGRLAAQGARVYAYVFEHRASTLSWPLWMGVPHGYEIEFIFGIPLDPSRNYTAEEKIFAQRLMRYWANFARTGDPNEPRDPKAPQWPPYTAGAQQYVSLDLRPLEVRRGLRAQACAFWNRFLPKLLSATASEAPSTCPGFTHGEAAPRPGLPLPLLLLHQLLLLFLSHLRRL
# Method: as §1, §2
# AChE from Electrophorus electricus (electric eel) and freshly drawn (maximum one-day-old), venous EDTA whole blood samples from healthy human donors were used. […] For human blood AChE, 50 µL of the blood was added to a new 48-wells plate and 950 µL Triton buffer was added to these wells (20× dilution).
# Briefly, 20 µL of electric eel AChE or 20 µL of Triton-diluted blood (either exposed or unexposed) and 20 µL ethopropazine were added to 460 µL of DTNB buffer in a 48-wells plate. […] Blank wells contained only DTNB buffer and unexposed enzyme/blood to correct for any background absorbance. To these wells, 100 µL sodium phosphate buffer was added instead of acetylthiocholine after incubation.
# Unexposed, diluted blood (100 µL) was added to a 96-wells plate and 100 µL transformation agent (20 mg potassium ferricyanide, 5 mg potassium cyanide, 100 mg sodium bicarbonate and 50 µL Triton X-100 in 100 mL water) was added. […] Blank wells contained transformation reagent and buffer to correct for any background absorbance.
# All in vitro data were analysed in GraphPad Prism (version 8.4) and are expressed as mean ± standard deviation (SD). For data analysis, vehicle control (0.1% methanol) was set at 100% for both human and electric eel AChE. For human blood, the technical replicates were averaged to perform statistical tests. Unpaired t tests were used to test for differences between men and women and a one-way ANOVA followed by a post-hoc Tukey test was used to compare data between different age groups (group 1: ≥ 60 years; group 2: 31–60 years; group 3: ≤ 30 years).
# electric eel AChE = details: cited from earlier work
# [2] = measured or estimated in plasma following human exposure, cited from earlier work
# [3] = 30 min exposure, room temperature
# [4] = human variability in AChE inhibition
structure (smiles),measurement,setting,value
"CCOP(=O)(OCC)Oc1nc(Cl)c(Cl)cc1Cl [CPO, Chlorpyrifos-oxon]",IC20,[1]; [3],0.01 µM
same,"AChE inhibition (in words), electric eel",[1],show inhibition of AChE
same,"AChE inhibition (in words), human blood",human blood AChE,show inhibition of AChE
same,IC20,"human blood AChE; donor 3, read-out: IC20 Value",0.1 µM
same,IC20,"human blood AChE; donor 4, read-out: IC20 Value",0.1 µM
same,IC20,"human blood AChE; donor 5, read-out: IC20 Value",0.1 µM
same,IC20,"human blood AChE; donor 8, read-out: IC20 Value",0.1 µM
same,IC20,"human blood AChE; donor 11, read-out: IC20 Value",0.1 µM
same,IC20,"human blood AChE; donor 15, read-out: IC20 Value",0.1 µM
same,IC20,"human blood AChE; donor 17, read-out: IC20 Value",0.1 µM
same,concentration at which AChE activity is inhibited completely,human blood AChE; human donor blood,≥ 2.9 µM
same,Coefficient of variation (CV) C1 Human,human blood AChE; [4],5.5%
same,Coefficient of variation (CV) C2 Human,human blood AChE; [4],6.0%
same,Coefficient of variation (CV) C3 Human,human blood AChE; [4],12%
same,Coefficient of variation (CV) C4 Human,human blood AChE; [4],99%
same,Human uncertainty factor (UF) UF97.5,human blood AChE,2.2 and 2.2 [1.9–2.7]
same,IC20,"human blood AChE; whole blood, average of 20 donors, read-out: IC20 Human",0.17 µM
same,IC50,electric eel AChE; ref Jett et al. ([1999]),0.01 µM
same,IC50,electric eel AChE; ref Meijer et al. ([2014]),0.01 µM
same,IC50,electric eel AChE; ref Čolović et al. ([2011]),0.03 µM
same,In vivo concentration,[2]; ref Eyer et al. ([2009]),≤ 0.06 µM
same,In vivo concentration,[2]; ref Heilmair et al. ([2008]),≤ 0.02 µM
"Cc1nc(N(C)C)nc(OC(=O)N(C)C)c1C [PI, pirimicarb]",IC20,[1]; [3],9.9 µM
same,IC50,"[1]; 30 min exposure, room temperature, 3–4 independent experiments, read-out: IC50 Electric eel",61 µM
same,"AChE inhibition (in words), electric eel",[1],show inhibition of AChE
same,IC50,"human blood AChE; IC50 Human, whole blood, average of 20 donors",20 µM
same,IC50,"human blood AChE; IC50 Value, donor 1",19 µM
same,IC50,"human blood AChE; IC50 Value, donor 2",19 µM
same,IC50,"human blood AChE; IC50 Value, donor 3",17 µM
same,IC50,"human blood AChE; IC50 Value, donor 4",22 µM
same,IC50,"human blood AChE; IC50 Value, donor 5",17 µM
same,IC50,"human blood AChE; IC50 Value, donor 6",24 µM
same,IC50,"human blood AChE; IC50 Value, donor 7",23 µM
same,IC50,"human blood AChE; IC50 Value, donor 8",26 µM
same,IC50,"human blood AChE; IC50 Value, donor 9",15 µM
same,IC50,"human blood AChE; IC50 Value, donor 11",29 µM
same,IC50,"human blood AChE; IC50 Value, donor 12",18 µM
same,IC50,"human blood AChE; IC50 Value, donor 13",19 µM
same,IC50,"human blood AChE; IC50 Value, donor 14",15 µM
same,IC50,"human blood AChE; IC50 Value, donor 15",16 µM
same,IC50,"human blood AChE; IC50 Value, donor 16",14 µM
same,IC50,"human blood AChE; IC50 Value, donor 17",16 µM
same,IC50,"human blood AChE; IC50 Value, donor 18",22 µM
same,IC50,"human blood AChE; IC50 Value, donor 19",28 µM
same,IC50,"human blood AChE; IC50 Value, donor 20",19 µM
same,"AChE inhibition (in words), human blood",human blood AChE,show inhibition of AChE
same,Coefficient of variation (CV) C1 Human,human blood AChE; [4],5.8%
same,Coefficient of variation (CV) C2 Human,human blood AChE; [4],6.0%
same,Coefficient of variation (CV) C3 Human,human blood AChE; [4],6.9%
same,Coefficient of variation (CV) C4 Human,human blood AChE; [4],5.7%
same,Coefficient of variation (CV) C5 Human,"human blood AChE; human variability in AChE inhibition, concentration level C5 (Table S2)",5.8%
same,Coefficient of variation (CV) C6 Human,"human blood AChE; human variability in AChE inhibition, highest concentration C6 (Table S2)",6.6%
same,Human uncertainty factor (UF) UF97.5,human blood AChE,1.8 [1.5–2.1]
same,IC20,"human blood AChE; read-out: IC20 Human, whole blood, average of 20 donors",7.1 µM
same,IC20,"human blood AChE; read-out: IC20 Value, donor 1",8.6 µM
same,IC20,"human blood AChE; read-out: IC20 Value, donor 2",6.4 µM
same,IC20,"human blood AChE; read-out: IC20 Value, donor 3",5.8 µM
same,IC20,"human blood AChE; read-out: IC20 Value, donor 4",8 µM
same,IC20,"human blood AChE; read-out: IC20 Value, donor 5",5.9 µM
same,IC20,"human blood AChE; read-out: IC20 Value, donor 6",9.3 µM
same,IC20,"human blood AChE; read-out: IC20 Value, donor 7",6.4 µM
same,IC20,"human blood AChE; read-out: IC20 Value, donor 8",8.1 µM
same,IC20,"human blood AChE; read-out: IC20 Value, donor 9",4.2 µM
same,IC20,"human blood AChE; read-out: IC20 Value, donor 10",5.3 µM
same,IC20,"human blood AChE; read-out: IC20 Value, donor 11",7 µM
same,IC20,"human blood AChE; read-out: IC20 Value, donor 12",8.8 µM
same,IC20,"human blood AChE; read-out: IC20 Value, donor 13",4.7 µM
same,IC20,"human blood AChE; read-out: IC20 Value, donor 14",6.1 µM
same,IC20,"human blood AChE; read-out: IC20 Value, donor 15",6 µM
same,IC20,"human blood AChE; read-out: IC20 Value, donor 16",5.9 µM
same,IC20,"human blood AChE; read-out: IC20 Value, donor 17",4.8 µM
same,IC20,"human blood AChE; read-out: IC20 Value, donor 18",9.2 µM
same,IC20,"human blood AChE; read-out: IC20 Value, donor 19",18 µM
same,IC20,"human blood AChE; read-out: IC20 Value, donor 20",3.4 µM
same,In vivo concentration,[2]; ref Hoffmann et al. ([2008]),≤ 300 µM
